The record followed here is EP0001940A1, “Derivatives of eburnamenine, their preparation and their therapeutical application” (SYNTHELABO, priority 1977, dated 1979).

For this assay, the system named is souris de souche CDl. Put plainly: Hypobaric anoxia survival time test (Anoxie hypobare). It is filed as in vivo. The note with it: Mus musculus, ip; mean active dose = dose increasing survival time by 100% vs controls, determined graphically; mice, i.p. before the test; 190 mm Hg (5,25% oxygen); read-out: Anoxie hypobare DAM - i.p. An excerpt: Des souris de souche CDl sont maintenues dans une atmosphère appauvrie en oxygène, par réalisation d'un vide partiel (190mm de mercure correspondant à 5,25% d'oxygène).
Le temps de survie des animaux est noté. Ce temps est augmenté par les agents capables de favoriser l'oxygénation tissulaire et en particulier cérébrale. Les composés étudiés sont administrés, à plusieurs doses, par voie intrapéritonéale, […] avant l'essai. Les pourcentages d'augmentation du temps de survie par rapport aux valeurs obtenues chez les animaux témoins sont calculés. La dose active moyenne (DAM), dose qui augmente le temps de survie de 100% est déterminée graphiquement
Les résultats sont indiqués dans le tableau II suivant pour un nombre représentatif de composés.

With `CCC12CCCN3CCc4c(n(c5ccc(Br)cc45)C(C(N)=O)C1)C32` (stereo not drawn) [compound 6, Bromo-10 désoxyvincaminamide], the ED (100% increase in survival time) came to 1 mg/kg.

Turning to `CCOC(=O)C1CC2(CC)CCCN3CCc4c(n1c1ccc(Br)cc41)C32` (stereo not drawn) [compound 4], the ED (100% increase in survival time) stood at 1 mg/kg.

As to `CCC12CCCN3CCc4c(n(c5ccc(Br)cc45)C(C(=O)NC4CC4)C1)C32` (stereo not drawn) [compound 9], the ED (100% increase in survival time) is 0.5 to 1 mg/kg.

For the molecule `CCCCOC(=O)C1(O)CC2(CC)CCCN3CCc4c(n1c1ccc(Br)cc41)C32` (stereo not drawn) [compound 13, bromo-10 vincaminate de n-butyle], the ED (100% increase in survival time) lay in the range of 3 to 4 mg/kg.

For `CCC12CCCN3CCc4c(n(c5ccc(Br)cc45)C(C(=O)NC)C1)C32` (stereo not drawn) [compound 7], the ED (100% increase in survival time) was 2 mg/kg.

For `CCC12CCCN3CCc4c(n(c5cccc(Br)c45)C(C(=O)OC)C1)C32` (stereo not drawn) [compound 1, bromo-9 désoxyvincamine], the ED (100% increase in survival time) was determined as 8 mg/kg.

As for `CCC12CCCN3CCc4c(n(c5ccc(Br)cc45)C(C(=O)OC)C1)C32` (stereo not drawn) [compound 2, bromo-10 désoxyvincamine], the ED (100% increase in survival time) was determined as 3 mg/kg.

As for `CCC12CCCN3CCc4c(n(c5ccc(Br)cc45)C(C(=O)OC(C)C)C1)C32` (stereo not drawn) [compound 5], the ED (100% increase in survival time) came to 3 mg/kg.

As for `CCOC(=O)C1(O)CC2(CC)CCCN3CCc4c(n1c1ccc(Br)cc41)C32` (stereo not drawn) [compound 14], the ED (100% increase in survival time) was 3 mg/kg.

In the case of `CCN(CC)C(=O)C1CC2(CC)CCCN3CCc4c(n1c1ccc(Br)cc41)C32` (stereo not drawn) [compound 8], the ED (100% increase in survival time) was 4 mg/kg.

For `CCOC(=O)C1=CC2(CC)CCCN3CCc4c(n1c1ccc(Br)cc41)C32` (stereo not drawn) [compound 18], the ED (100% increase in survival time) was determined as 7 mg/kg.

Consider `CCOC(=O)C1CC2(CC)CCCN3CCc4c(n1c1cccc(Br)c41)C32` (stereo not drawn) [compound 3], for which the ED (100% increase in survival time) is 8 mg/kg.
